Article PMC6158786 (ACS chemical biology, 2018)
Numbering of substitutions follows the chain as printed.

How the values were obtained:
Assay type in all cases: biochemical
human BCO1 [1] = target: T1, human BCO1 (Homo sapiens, UniProt Q9HAY6); assay: HPLC product formation; conditions: DMN micelles, pH 7, 30 °C, 12 min
T1 sequence (Q9HAY6 1-547): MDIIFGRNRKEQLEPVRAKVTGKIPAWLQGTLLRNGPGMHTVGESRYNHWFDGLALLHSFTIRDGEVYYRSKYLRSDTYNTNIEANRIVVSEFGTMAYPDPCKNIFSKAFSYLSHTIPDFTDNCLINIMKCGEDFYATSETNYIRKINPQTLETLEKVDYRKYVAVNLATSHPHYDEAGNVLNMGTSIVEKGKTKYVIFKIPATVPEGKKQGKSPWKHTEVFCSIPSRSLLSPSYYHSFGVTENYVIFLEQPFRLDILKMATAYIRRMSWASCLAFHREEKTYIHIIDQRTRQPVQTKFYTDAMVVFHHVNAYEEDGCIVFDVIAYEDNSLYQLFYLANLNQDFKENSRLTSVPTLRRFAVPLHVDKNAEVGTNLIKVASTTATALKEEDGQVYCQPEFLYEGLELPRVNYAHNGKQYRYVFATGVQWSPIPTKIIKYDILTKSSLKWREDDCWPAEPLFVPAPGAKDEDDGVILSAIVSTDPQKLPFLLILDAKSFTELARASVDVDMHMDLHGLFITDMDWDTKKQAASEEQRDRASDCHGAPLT

human BCO1 [2] = target: T1, human BCO1; assay: inhibition of BC cleavage by E. coli crude extract, HPLC; conditions: 20 μM BC, 10 μM fenretinide, DMN micelles
human BCO1 [3] = target: T2, human BCO1 (Homo sapiens, UniProt Q9HAY6, L168G/W270F); assay: HPLC product formation with E. coli protein extract; conditions: DMN micelles, 30 °C; product all-trans-3-hydroxy-retinal
T2 sequence (Q9HAY6 1-547 L168G/W270F): T1 sequence (Q9HAY6 1-547) with L168G, W270F

human BCO1 [4] = target: T3, human BCO1 (Homo sapiens, UniProt Q9HAY6, W270F); assay: as above; conditions: DMN micelles, 30 °C; product all-trans-3-hydroxy-retinal
T3 sequence (Q9HAY6 1-547 W270F): T1 sequence (Q9HAY6 1-547) with W270F

## CC1=C(/C=C/C(C)=C/C=C/C(C)=C/C=C/C=C(C)/C=C/C=C(C)/C=C/C2=C(C)CCCC2(C)C)C(C)(C)CCC1 [BC, β,β-carotene]
Human BCO1 [1]; product all-trans-retinal
  HPLC product formation: BCO1 catalyzed the production of all-trans-retinal from BC

## CC1=C(/C=C/C(C)=C/C=C/C(C)=C/C(=O)Nc2ccc(O)cc2)C(C)(C)CCC1 [fenretinide]
Human BCO1 [2]
  inhibition at 10 μM: fenretinide, a known BCO1 inhibitor, efficiently inhibited the enzymatic activity of BCO1

## CC1=C(/C=C/C(C)=C/C=C/C(C)=C/C=C/C=C(C)/C=C/C=C(C)/C=C/C2=C(C)C[C@@H](O)CC2(C)C)C(C)(C)C[C@H](O)C1 [ZEA, zeaxanthin]
Human BCO1 [3]
  HPLC product formation with E. coli protein extract: mutant BCO1 variants readily converted zeaxanthin to all-trans-3-hydroxy-retinal in repeated assays
Human BCO1 [4]
  HPLC product formation with E. coli protein extract: mutant BCO1 variants readily converted zeaxanthin to all-trans-3-hydroxy-retinal in repeated assays

## CC1=C(/C=C/C(C)=C/C=C/C(C)=C/C=C/C=C(C)/C=C/C=C(C)/C=C/C2=C(C)C[C@@H](O)CC2(C)C)C(C)(C)CCC1 [CX, 3R-β,β-Caroten-3-ol]
Human BCO1 [1]; products all-trans-retinal and 3-hydroxy-retinal
  HPLC product formation: all-trans-retinal and all-trans-3-hydroxy-retinal resulting from CX cleavage displayed distinct retention times
